target: T1, human Orexin 1 receptor (Homo sapiens, UniProt O43613); assay: Assay A: In vitro testing of OX1R potency: OX1R IP1 (HTRF, CHO-K1/hOX1 cells, Orexin A as agonist); type: cell-based; conditions: OX1R Kb at 50 nM Orexin A
T1 construct: stably expressing the full-length human Orexin 1 receptor; expressed in transfected cells; host or cells: CHO-K1 (CHO-K1/hOX1), co-expressing aequorin
T1 sequence (O43613 1-425): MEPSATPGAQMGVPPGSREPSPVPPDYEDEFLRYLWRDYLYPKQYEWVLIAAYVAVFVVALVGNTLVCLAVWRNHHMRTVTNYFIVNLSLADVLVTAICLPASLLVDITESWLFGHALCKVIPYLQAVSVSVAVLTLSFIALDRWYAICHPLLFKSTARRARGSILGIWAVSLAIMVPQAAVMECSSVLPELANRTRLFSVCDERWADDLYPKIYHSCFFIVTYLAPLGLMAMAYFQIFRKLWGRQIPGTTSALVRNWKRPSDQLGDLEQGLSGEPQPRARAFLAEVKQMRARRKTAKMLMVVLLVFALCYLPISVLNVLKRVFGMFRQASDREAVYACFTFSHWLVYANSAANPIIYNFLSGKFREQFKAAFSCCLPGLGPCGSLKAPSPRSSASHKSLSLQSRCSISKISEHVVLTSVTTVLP

SMILES	OX2R Kb/OX1R Kb
CCN(C(=O)c1cccc(Cl)c1-n1nccn1)[C@@H](C)COc1ccc(C(F)(F)F)cn1 [Example 90]	520
CCN(C(=O)c1ccc(F)c(F)c1-n1nccn1)[C@@H](C)COc1ccc(C(F)(F)F)cn1 [Example 91]	340
CCN(C(=O)c1c(-n2nccn2)ccc(C)c1F)[C@@H](C)COc1ccc(C(F)(F)F)cn1 [Example 92]	640
CCN(C(=O)c1ccccc1-c1cnn(C)c1)[C@@H](C)COc1ccc(C(F)(F)F)cn1 [Example 93]	99
CCN(C(=O)c1c(F)cccc1-n1nccn1)[C@@H](C)COc1ccc(C(F)(F)F)cn1 [Example 94]	211
CCN(C(=O)c1cccc(F)c1-c1ncccn1)[C@@H](C)COc1ccc(C(F)(F)F)cn1 [Example 97]	800
CCN(C(=O)c1ccccc1-c1ncccn1)[C@@H](C)COc1ccc(C(F)(F)F)cn1 [Example 102]	1080
CCN(C(=O)c1cc(C)ccc1-c1ncccn1)[C@@H](C)COc1ccc(C(F)(F)F)cn1 [Example 105]	524
CCN(C(=O)c1cc(F)ccc1-c1ncccn1)[C@@H](C)COc1ccc(C(F)(F)F)cn1 [Example 107]	500
CCN(C(=O)c1ccc(F)cc1-c1ncccn1)[C@@H](C)COc1ccc(C(F)(F)F)cn1 [Example 108]	409
CCN(C(=O)c1cccc(F)c1-n1nccn1)[C@@H](C)COc1ccc(C(F)(F)F)cn1 [Example 109]	327
CCN(C(=O)c1cccc(F)c1-n1nccn1)[C@@H](C)COc1ncc(C(F)(F)F)cc1Cl [Example 110]	312

same assay, conditions: Orexin A 50 nM; read-out: OX1R Kb (Orexin A concentration used)

SMILES	Kb
CCN(C(=O)c1cccc(Cl)c1-n1nccn1)[C@@H](C)COc1ccc(C(F)(F)F)cn1 [Example 90]	0.025 nM
CCN(C(=O)c1ccc(F)c(F)c1-n1nccn1)[C@@H](C)COc1ccc(C(F)(F)F)cn1 [Example 91]	0.2 nM
CCN(C(=O)c1c(-n2nccn2)ccc(C)c1F)[C@@H](C)COc1ccc(C(F)(F)F)cn1 [Example 92]	0.025 nM
CCN(C(=O)c1ccccc1-c1cnn(C)c1)[C@@H](C)COc1ccc(C(F)(F)F)cn1 [Example 93]	0.75 nM
CCN(C(=O)c1c(F)cccc1-n1nccn1)[C@@H](C)COc1ccc(C(F)(F)F)cn1 [Example 94]	0.37 nM
CCN(C(=O)c1cccc(F)c1-c1ncccn1)[C@@H](C)COc1ccc(C(F)(F)F)cn1 [Example 97]	0.025 nM
CCN(C(=O)c1ccccc1-c1ncccn1)[C@@H](C)COc1ccc(C(F)(F)F)cn1 [Example 102]	0.025 nM
CCN(C(=O)c1cc(C)ccc1-c1ncccn1)[C@@H](C)COc1ccc(C(F)(F)F)cn1 [Example 105]	0.021 nM
CCN(C(=O)c1cc(F)ccc1-c1ncccn1)[C@@H](C)COc1ccc(C(F)(F)F)cn1 [Example 107]	0.064 nM
CCN(C(=O)c1ccc(F)cc1-c1ncccn1)[C@@H](C)COc1ccc(C(F)(F)F)cn1 [Example 108]	0.11 nM
CCN(C(=O)c1cccc(F)c1-n1nccn1)[C@@H](C)COc1ccc(C(F)(F)F)cn1 [Example 109]	0.11 nM
CCN(C(=O)c1cccc(F)c1-n1nccn1)[C@@H](C)COc1ncc(C(F)(F)F)cc1Cl [Example 110]	0.17 nM

system: not listed separately; assay: Assay C: Metabolic stability in human liver microsomes (Human MST); type: in vitro ADME; conditions: pooled human liver microsomes, pH 7.6; human liver microsomes 1 mg/mL, compound 1 μM, 37° C., NADPH; read-out: Human MST t1/2
Experimental: C. Assessment of Metabolic Stability in Human Liver Microsomes (Human MST)
The metabolic stability of the compounds according to the invention may be investigated as follows:
The metabolic degradation of the test compound is assayed at 37° C. with pooled human liver microsomes. The final incubation volume of 100 μL per time point contains TRIS buffer pH 7.6 at room temperature (0.1 M), MgCl2 (5 mM), microsomal protein (1 mg/mL) and the test compound at a final concentration of 1 μM. Following a short pre-incubation period at 37° C., the reactions are initiated by addition of beta-nicotinamide adenine dinucleotide phosphate, reduced form (NADPH, 1 mM), and terminated by transferring an aliquot into solvent after different time points. After centrifugation (10000 g, 5 min), an aliquot of the supernatant is assayed by LC-MS/MS for the amount of parent compound. The half-life (t1/2) is determined by the slope of the semi-logarithmic plot of the concentration-time profile.

SMILES	half-life at 1 μM
CCN(C(=O)c1cccc(Cl)c1-n1nccn1)[C@@H](C)COc1ccc(C(F)(F)F)cn1 [Example 90]	44 min
CCN(C(=O)c1ccc(F)c(F)c1-n1nccn1)[C@@H](C)COc1ccc(C(F)(F)F)cn1 [Example 91]	18 min
CCN(C(=O)c1c(-n2nccn2)ccc(C)c1F)[C@@H](C)COc1ccc(C(F)(F)F)cn1 [Example 92]	18 min
CCN(C(=O)c1ccccc1-c1cnn(C)c1)[C@@H](C)COc1ccc(C(F)(F)F)cn1 [Example 93]	18 min
CCN(C(=O)c1c(F)cccc1-n1nccn1)[C@@H](C)COc1ccc(C(F)(F)F)cn1 [Example 94]	31 min
CCN(C(=O)c1cccc(F)c1-c1ncccn1)[C@@H](C)COc1ccc(C(F)(F)F)cn1 [Example 97]	100 min
CCN(C(=O)c1ccccc1-c1ncccn1)[C@@H](C)COc1ccc(C(F)(F)F)cn1 [Example 102]	36 min
CCN(C(=O)c1cc(C)ccc1-c1ncccn1)[C@@H](C)COc1ccc(C(F)(F)F)cn1 [Example 105]	10 min
CCN(C(=O)c1cc(F)ccc1-c1ncccn1)[C@@H](C)COc1ccc(C(F)(F)F)cn1 [Example 107]	65 min
CCN(C(=O)c1ccc(F)cc1-c1ncccn1)[C@@H](C)COc1ccc(C(F)(F)F)cn1 [Example 108]	50 min
CCN(C(=O)c1cccc(F)c1-n1nccn1)[C@@H](C)COc1ccc(C(F)(F)F)cn1 [Example 109]	75 min
CCN(C(=O)c1cccc(F)c1-n1nccn1)[C@@H](C)COc1ncc(C(F)(F)F)cc1Cl [Example 110]	100 min

target: T2, human orexin 2 receptor (Homo sapiens, UniProt O43614); assay: Assay B: In vitro testing of OX2R potency: OX2R IP1 (HTRF, CHO-K1/hOX2 cells, Orexin A as agonist); type: cell-based; conditions: Orexin A 0.5 nM
T2 construct: stably expressing the full-length human orexin 2 receptor; expressed in transfected cells; host or cells: CHO-K1 (CHO-K1/hOX2), co-expressing aequorin
T2 sequence (O43614 1-444): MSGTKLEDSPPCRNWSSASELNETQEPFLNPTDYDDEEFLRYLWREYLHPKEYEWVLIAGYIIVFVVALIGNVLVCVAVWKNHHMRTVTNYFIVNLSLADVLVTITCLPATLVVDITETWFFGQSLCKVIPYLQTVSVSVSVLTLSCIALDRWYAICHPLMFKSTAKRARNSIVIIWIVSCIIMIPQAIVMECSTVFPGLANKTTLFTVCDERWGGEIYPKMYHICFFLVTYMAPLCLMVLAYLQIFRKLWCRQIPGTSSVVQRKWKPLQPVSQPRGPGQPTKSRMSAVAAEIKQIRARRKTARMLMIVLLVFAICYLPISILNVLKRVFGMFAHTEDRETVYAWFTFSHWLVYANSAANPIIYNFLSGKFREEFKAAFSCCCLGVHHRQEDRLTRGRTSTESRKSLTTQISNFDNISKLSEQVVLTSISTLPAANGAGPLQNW
Source text: Activation of the orexin receptors expressed in cell lines results in an increase in intracellular IP3 concentration. IP1, a downstream metabolite of IP3, accumulates in cells following receptor activation and is stable in the presence of LiCl. Using Homogeneous Time-Resolved Fluorescence technology with Lumi4-Tb cryptate (commercially available from Cisbio Bioassay.) and a suitable fluorescence plate reader. […] Chem. Genomics 2009, 3, 22-32. This technique is used to characterize pharmacological modification of the orexin receptors.
B. In Vitro Testing of OX2R Potency: OX2R IP1
IP1 measurements are performed in CHO-K1 cells stably expressing the full-length human orexin 2 receptor and the aequorin photoprotein. Cells are cultivated in Ham's nutrient mixture F12 medium with 10% fetal calf serum, in a 37° C., 95% humidity and 5% CO2 incubator. The CHO-K1/hOX2 cell mass is expanded to larger cell numbers. The cells are obtained as frozen cells in cryo-vials and stored until use at −150° C. The viability of the cells after thawing is >90%. In preparation for the assay, 24 hours before the assay, the cells are thawed at 37° C. and immediately diluted with cell culture medium. After centrifugation, the cell pellet is resuspended in medium and then distributed into the assay plates with a density of 5000 cells/25 μL per well. The plates are incubated for one hour at room temperature to reduce edge effects before they are incubated for 24 hours at 37° C./5% CO2. Compounds are prepared by a 8-point serial dilution in DMSO and a final dilution step into assay buffer (HBSS with 20 mM HEPES, 0.1% BSA and 50 mM LiCl, pH 7.4) to ensure a final DMSO concentration of 1% in the assay.
On the day of the assay, cells in the plate are washed twice with 60 μL assay buffer (20 μL buffer remained in the wells after washing), followed by adding 5 μL per well of compounds diluted in assay buffer. After 15 minutes of incubation at room temperature 5 μL per well of Orexin A peptide (final concentration: 0.5 nM) dissolved in assay buffer is added to the assay plate. The assay plate is incubated for 60 minutes at 37° C. Then 5 μL per well of Anti-IP1-Cryptate Tb solution and 5 μL per well of IP1-d2 dilution are added to all well of the plate and the plate is incubated for a further 60 minutes light protected at room temperature. The emission at 615 nm and 665 nm (Excitation wavelength: 320 nm) are measured using an EnVision reader (PerkinElmer). The ratio between the emission at 665 nm and 615 is calculated by the reader.
8-point four parametric non-linear curve fitting and determination of IC50 values and Hill slopes is performed using a regular analysis software e.g. AssayExplorer (Accelrys). In order to establish an agonist concentration independent parameter, Kb values are calculated using the following equation: IC50/((2+(A/EC50)n)^1/n−1) (with A=concentration agonist, EC50=EC50 agonist, n=Hill slope agonist) (see P. Leff, I. G. Dougall, Trends Pharmacol. Sci. 1993, 14(4), 110-112).
Kb values from Assay A (OX1R) and Assay B (OX2R) can then provide a selectivity ratio which is independent of the agonist (Orexin A) concentration.

SMILES	Kb
CCN(C(=O)c1cccc(Cl)c1-n1nccn1)[C@@H](C)COc1ccc(C(F)(F)F)cn1 [Example 90]	13 nM
CCN(C(=O)c1ccc(F)c(F)c1-n1nccn1)[C@@H](C)COc1ccc(C(F)(F)F)cn1 [Example 91]	68 nM
CCN(C(=O)c1c(-n2nccn2)ccc(C)c1F)[C@@H](C)COc1ccc(C(F)(F)F)cn1 [Example 92]	16 nM
CCN(C(=O)c1ccccc1-c1cnn(C)c1)[C@@H](C)COc1ccc(C(F)(F)F)cn1 [Example 93]	74 nM
CCN(C(=O)c1c(F)cccc1-n1nccn1)[C@@H](C)COc1ccc(C(F)(F)F)cn1 [Example 94]	78 nM
CCN(C(=O)c1cccc(F)c1-c1ncccn1)[C@@H](C)COc1ccc(C(F)(F)F)cn1 [Example 97]	20 nM
CCN(C(=O)c1ccccc1-c1ncccn1)[C@@H](C)COc1ccc(C(F)(F)F)cn1 [Example 102]	27 nM
CCN(C(=O)c1cc(C)ccc1-c1ncccn1)[C@@H](C)COc1ccc(C(F)(F)F)cn1 [Example 105]	11 nM
CCN(C(=O)c1cc(F)ccc1-c1ncccn1)[C@@H](C)COc1ccc(C(F)(F)F)cn1 [Example 107]	32 nM
CCN(C(=O)c1ccc(F)cc1-c1ncccn1)[C@@H](C)COc1ccc(C(F)(F)F)cn1 [Example 108]	45 nM
CCN(C(=O)c1cccc(F)c1-n1nccn1)[C@@H](C)COc1ccc(C(F)(F)F)cn1 [Example 109]	36 nM
CCN(C(=O)c1cccc(F)c1-n1nccn1)[C@@H](C)COc1ncc(C(F)(F)F)cc1Cl [Example 110]	53 nM

From patent US10787432B2, “N-[(pyridyloxy)propanyl]benzamides” (Boehringer Ingelheim International GmbH, priority 2016, dated 2020)
